From patent publication US4405643A, “Treatment of acute pulmonary edema with arginine esters” (Italfarmaco S.p.A., priority 1979, dated 1983)
Structures can show the parent of a compound that is named as a salt.

Assays:
[1] = Protection against pulmonary edema (adrenaline-induced acute edema of the lungs); type: in vivo, male albino rats of Wistar type; conditions: parenteral, 15 min before adrenaline
Description: The method of A. M. Rothschild and A. Castania (Arch. Pharmacol., 295, 177 (1976)), has been used to develop the acute edema in the lungs and substances of known therapeutic activity have been used for comparison purpose.
For the test, male albino rats of Wistar type of average weight 250-350 grams, have been used for the test. The rats were stabilized for a period of ten days at a temperature of 21°±1° C., under conditions of controlled diet and water "ad libitum". Prior to the test, the animals were divided into groups of ten for the purpose of achieving good randomization. Each dose was tried on three groups of animals. The animals were anesthetized with pentobarbital in a dose of 30 mg/kg at the beginning of the test. After the animals were in complete narcosis, the following substances were administered by the parenteral route:
1. to the animals as controls, physiological saline solution in the amount of 1 ml/kg,
2. to the animals in the test, a solution of the substance being tested in physiological saline solution in the amount of 1 ml/kg in the doses reported hereinbelow in the table.
After a period of 15 minutes, for the purpose of determining the protective activity of the substances, adrenaline was administered in the amount of 16 γ/kg by the endovenous route and in physiological saline solution, for the purpose of causing acute edema.
After five minutes, the animals were killed by removal of the head, the lungs were removed and the weight of the lungs were determined. The results of the test are reported in Table 1 hereinbelow, together with the concentration of the substances and the relative inhibition of edema in percent.

[2] = Protection against shock caused by endotoxins (lipopolysaccharide B from S. Enteritidis); type: in vivo, male rats of Wistar type; conditions: parenteral, 1 h before endotoxin, after 24 h
Description: Endotoxin-induced shock has been produced according to the method reported by A. Bertelli and L. Donati, in the publication "The Influence of Some Enzymes and Enzymes Inhibitors in Shock", published in "SHOCK Biochemical,Pharmaceutical and Clinical Aspects"; A. Bertelli and N. Back Editors, Advances in Experimental Medicine and Biology; Volume 9, Plenum Press New York - London 1970, page 215. By way of comparison, there has been used a substance of well known therapeutical activity, specifically aprotinine, the commercial products marketed by Farbenfabriken Bayer, under the name "Trasylol". Male rats of Wistar type of 120 grams by weight ±10 have been used. The rats were previously stabilized for a period of ten days at a temperature of 21°±1° C. under a controlled diet and water "ad libitum". Twenty-four hours prior to the test, the animals were divided in groups of ten for the purpose of achieving randomization. Every single dose has been tried on six groups of animals.
Lipopolysaccharide B from S. Enteritidis (Difco Labs.) was used as the endotoxin. This substance was administered in the dose of 10 mg/kg by the endoperitoneal route, one hour after administration of the substance being administered by the parenteral route or in the form of a physiological solution in equal volume per kilogram to the animals being used as control.
The mortality in percent was determined in the animals being tested as compared with the controls after twenty-four hours.

[3] = Protection against anaphylactic shock (horse serum); type: in vivo, male albino guinea pigs; conditions: parenteral, with horse serum challenge, after 12 h
Description: The anaphylactic shock has been induced according to the method of S. M. Feinberg, M. Pharmacol. Exp. Therapeut., 99, 195 (1950). There have been used male albino guinea pigs of average weight, 350±20 grams previously stabilized for a period of ten days at a temperature of 21°±1° C., under conditions of controlled diet and water "ad libitum". Three days before the beginning of the experiment, the animals are divided in groups of ten for the purpose of achieving good randomization. Each single dose has been tried on three groups of animals.
The sensitization has been carried out by administration of 1 ml/guinea pig through the endovenous route of horse serum, (whole serum, not treated with preservatives) diluted 1:10 in physiological saline solution. After 14 days, the solutions of the substances being tested and the samples of physiological solutions for use with the controls are administered through the parenteral route. Simultaneously, 1 ml/guinea pig of horse serum, undiluted is administered, this substance being used as the agent which prompts the anaphylaxis. The percentage of mortality is determined after 12 hours.

[4] = tested on: Fibrin Degradation Products; assay: Inhibition of hyperfibrinolysis caused by urokinase (F.D.P., staphylococcal clumping test); type: in vivo, Wistar rats; conditions: parenteral, 30 min before urokinase 2500 U.I/rat
Description: The induction of hyperfibrinolysis state is caused by administration of urokinase. The determination of the inhibition is carried out by determination of the F.D.P. value, that is Fibrin Degradation Products, according to the procedure of J. Hawiger et al, J. Lab. Clin. Med. 75, 93 (1970), by means of the staphylococcal clumping test (Boehringer Mannheim GmbH test).
There are used Wistar rats of 300 grams ±10 by weight previously stabilized for a period of ten days at a temperature of 21°±1° C., under conditions of controlled diet and water "ad libitum". Twenty-four hours prior to the beginning of the experiment, the animals are divided in groups of ten for the purpose of achieving randomization. Each individual dose is tried on three groups of animals.
At the beginning of the test, zero time, the compounds being tested are administered through the parenteral route. In the case of the control animals, at the same time an equal volume of a physiological saline solution is administered except that some blood is removed by means of a cardiac puncture, for the purpose of determining the basal fibrinolytic activity. After 30 minutes, human urokinase (the composition marketed by Ukidan-Serono) is administered intravenously in the amount of 2500 U.I/rat. After an additional period of ten minutes, blood is removed by means of a cardiac puncture for the final determination of F.D.P., a determination which is expressed in […].

CCOC(=O)[C@H](N)CCCNC(=N)N [D-A.E., DArginine ethyl ester hydrochloride]
% INHIBITION OF EDEMA ([1]; dose 0.1 mg/kg): 7%
% INHIBITION OF EDEMA ([1]; dose 0.25 mg/kg): 11%
% INHIBITION OF EDEMA ([1]; dose 0.5 mg/kg): 3%
% INHIBITION OF EDEMA ([1]; dose 1 mg/kg): 4.2%
% INHIBITION OF EDEMA ([1]; dose 2.5 mg/kg): 7%
% INHIBITION OF EDEMA ([1]; dose 5 mg/kg): 5.3%
% INHIBITION OF EDEMA ([1]; dose 10 mg/kg): 6%
% INHIBITION OF EDEMA ([1]; dose 20 mg/kg): 2.5%
% MORTALITY ([2]; dose 5 mg/kg): 72%
% MORTALITY ([2]; dose 10 mg/kg): 67%
% MORTALITY ([2]; dose 20 mg/kg): 69.3%
% MORTALITY ([2]; dose 50 mg/kg): 71%
% MORTALITY ([3]; dose 10 mg/kg): 76.7%
% MORTALITY ([3]; dose 20 mg/kg): 79.4%
% MORTALITY ([3]; dose 50 mg/kg): 81.0%
F.D.P. ([4]; dose 5 mg/kg): 3.20 milliliters
F.D.P. ([4]; dose 10 mg/kg): 3.16 milliliters
F.D.P. ([4]; dose 20 mg/kg): 3.19 milliliters

CCOC(=O)[C@@H](N)CCCNC(=N)N [L-A.E., LArginine ethyl ester hydrochloride]
% INHIBITION OF EDEMA ([1]; dose 0.1 mg/kg): 3.4%
% INHIBITION OF EDEMA ([1]; dose 0.25 mg/kg): 32.2%
% INHIBITION OF EDEMA ([1]; dose 0.5 mg/kg): 33.3%
% INHIBITION OF EDEMA ([1]; dose 1 mg/kg): 55.7%
% INHIBITION OF EDEMA ([1]; dose 2.5 mg/kg): 47.9%
% INHIBITION OF EDEMA ([1]; dose 5 mg/kg): 41.0%
% INHIBITION OF EDEMA ([1]; dose 10 mg/kg): 38.9%
% INHIBITION OF EDEMA ([1]; dose 20 mg/kg): 39.7%
% MORTALITY ([2]; dose 5 mg/kg): 51.3%
% MORTALITY ([2]; dose 10 mg/kg): 48.2%
% MORTALITY ([2]; dose 20 mg/kg): 37.5%
% MORTALITY ([2]; dose 50 mg/kg): 25.0%
% MORTALITY ([3]; dose 10 mg/kg): 35%
% MORTALITY ([3]; dose 20 mg/kg): 23%
% MORTALITY ([3]; dose 50 mg/kg): 9.5%
F.D.P. ([4]; dose 5 mg/kg): 0.50 milliliters
F.D.P. ([4]; dose 10 mg/kg): 0.33 milliliters
F.D.P. ([4]; dose 20 mg/kg): 0.27 milliliters

COC(=O)[C@@H](N)CCCNC(=N)N [L-A.M., LArginine methyl ester hydrochloride]
% INHIBITION OF EDEMA ([1]; dose 1 mg/kg): 21.2%
% INHIBITION OF EDEMA ([1]; dose 2.5 mg/kg): 27.4%
% INHIBITION OF EDEMA ([1]; dose 5 mg/kg): 29.0%
% INHIBITION OF EDEMA ([1]; dose 10 mg/kg): 55.7%
% INHIBITION OF EDEMA ([1]; dose 20 mg/kg): 15.7%
% MORTALITY ([2]; dose 5 mg/kg): 55.0%
% MORTALITY ([2]; dose 10 mg/kg): 50.0%
% MORTALITY ([2]; dose 20 mg/kg): 40.0%
% MORTALITY ([2]; dose 50 mg/kg): 28.0%
% MORTALITY ([3]; dose 10 mg/kg): 40.5%
% MORTALITY ([3]; dose 20 mg/kg): 27%
% MORTALITY ([3]; dose 50 mg/kg): 12.5%
F.D.P. ([4]; dose 5 mg/kg): 0.48 milliliters
F.D.P. ([4]; dose 10 mg/kg): 0.30 milliliters
F.D.P. ([4]; dose 20 mg/kg): 0.25 milliliters
